We go through one compound from patent US7037929B1, “2-amino-thiazole derivatives, process for their preparation, and their use as antitumor agents” (Pharmacia & Upjohn S.p.A., priority 1998, dated 2006).

This experiment concerns the target cdk2/cyclin A complex (Homo sapiens, UniProt P24941). Kind of experiment: inhibition assay of cdk2/Cyclin A activity (MultiScreen-PH phosphocellulose filter plate, 33P-ATP, histone H1). It is filed as biochemical. To be noted: ATP and histone H1 substrate concentrations varied; random bireactant system equation; read-out: inhibiting activity towards the cdk2/cyclin A complex (Ki). Here is the method:
The inhibiting activity of putative cdk/cyclin inhibitors and the potency of selected compounds was determined through a method of assay based on the use of the MultiScreen-PH 96 well plate (Millipore), in which a phosphocellulose filter paper was placed at each well bottom allowing binding of positive charged substrate after a washing/filtration step.
When a radioactivity labelled phosphate moiety was transferred by the ser/threo kinase to the filter-bound histone, light emitted was measured in a scintillation counter. The inhibition assay of cdk2/Cyclin A activity was performed according to the following protocol:
Kinase reaction: 1.5 μM histone H1 substrate, 25 μM ATP (0. 5 μCi P^33γ-ATP), 30 ng Cyclin A/cdk2 complex, […] in a final volume of 100 μl buffer (TRIS HCl 10 mM pH 7.5, MgCl2 10 mM, 7.5 mM DTT) were added to each well of a 96 U bottom well plate. After 10 min at 37° C. incubation, reaction was stopped by 20 μl EDTA 120 mM.
Capture: 100 μl were transferred from each well to MultiScreen plate, to allow substrate binding to phosphocellulose filter. […]
Detection: filters were allowed to dry at 37° C., then 100 μl/well scintillant were added and ^33P labelled histone H1 was detected by radioactivity counting in the Top-Count instrument.
Results: data were analysed and expressed as % inhibition referred to total activity of enzyme (=100%). […]

With `CC(C)c1cnc(NC(=O)Cc2ccc(N(C)C)cc2)s1` [2-[4-(dimethylamino)phenyl]-N-(5-isopropyl-1,3-thiazol-2-yl)acetamide], the Ki was determined as 100 nM.
